Laboratory results reported in ChEMBL document CHEMBL3882724 (2013).

Legend:
[1] = molecular target: T1, Steroid 17-alpha-hydroxylase/17,20 lyase (Homo sapiens, UniProt P05093); assay: Inhibition of CYP17 in human testicular microsomes using 17alpha-hydroxypregnenolone as substrate assessed as decrease in DHEA levels after 90 mins by ELISA; design: species or system Testis
T1 sequence (P05093 whole entry): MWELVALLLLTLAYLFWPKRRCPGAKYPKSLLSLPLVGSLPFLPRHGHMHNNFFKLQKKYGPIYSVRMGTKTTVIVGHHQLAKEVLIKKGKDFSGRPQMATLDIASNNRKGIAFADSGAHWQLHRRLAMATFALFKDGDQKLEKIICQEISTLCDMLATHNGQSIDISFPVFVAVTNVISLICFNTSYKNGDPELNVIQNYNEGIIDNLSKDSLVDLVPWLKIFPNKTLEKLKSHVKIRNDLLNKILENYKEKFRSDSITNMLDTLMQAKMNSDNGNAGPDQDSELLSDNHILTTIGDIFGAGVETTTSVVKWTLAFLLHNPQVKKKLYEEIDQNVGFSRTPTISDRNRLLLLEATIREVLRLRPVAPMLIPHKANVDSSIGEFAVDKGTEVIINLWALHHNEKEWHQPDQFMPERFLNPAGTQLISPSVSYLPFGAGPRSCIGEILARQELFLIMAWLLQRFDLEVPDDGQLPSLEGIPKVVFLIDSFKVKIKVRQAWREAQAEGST

[2] = molecular target: T1, Steroid 17-alpha-hydroxylase/17,20 lyase; assay: Inhibition of CYP17 in human testicular microsomes using 17alpha-hydroxypregnenolone as substrate assessed as decrease in DHEA levels at 1 nM after 90 mins by ELISA relative to control; design: species or system Testis
[3] = molecular target: T2, CYP21 (steroid 21-hydroxylase) (Homo sapiens, UniProt P08686); assay: Inhibition of human CYP21 transfected in HEK293 cells assessed as decrease in conversion of progesterone to 11-deoxycorticosterone preincubated for 5 hrs followed by progesterone addition measured after 20 hrs by ELISA; assay type: cell-based; design: concentration or dose not given beside the values; conditions: HEK293 cells transfected with human CYP21, probe progesterone
T2 sequence (P08686 whole entry): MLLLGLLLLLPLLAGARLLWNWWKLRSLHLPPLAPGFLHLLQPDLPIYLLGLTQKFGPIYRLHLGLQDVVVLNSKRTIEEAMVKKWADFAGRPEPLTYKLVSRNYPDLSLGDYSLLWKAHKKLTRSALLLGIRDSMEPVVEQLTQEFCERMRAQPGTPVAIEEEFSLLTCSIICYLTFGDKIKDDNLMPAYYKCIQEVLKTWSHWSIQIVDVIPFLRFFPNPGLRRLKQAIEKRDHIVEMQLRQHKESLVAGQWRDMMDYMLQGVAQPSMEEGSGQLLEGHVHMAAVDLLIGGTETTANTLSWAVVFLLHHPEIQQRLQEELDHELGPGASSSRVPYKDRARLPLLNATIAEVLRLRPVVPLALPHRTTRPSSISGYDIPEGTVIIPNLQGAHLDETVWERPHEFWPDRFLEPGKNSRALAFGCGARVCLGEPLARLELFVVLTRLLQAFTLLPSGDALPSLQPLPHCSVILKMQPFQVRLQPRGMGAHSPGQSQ

[4] = Half life in human liver microsomes at 1 uM by LC-MS/MS analysis
[5] = molecular target: T1, Steroid 17-alpha-hydroxylase/17,20 lyase; assay: Inhibition of CYP17 in human testicular microsomes using 17alpha-hydroxypregnenolone as substrate assessed as decrease in DHEA levels at 10 nM after 90 mins by ELISA relative to control; design: species or system Testis; conditions: 1.5 h
[6] = molecular target: T1, Steroid 17-alpha-hydroxylase/17,20 lyase; assay: Inhibition of CYP17 in human H295R cells assessed as decrease in testosterone levels after 24 hrs by ELISA; assay type: cell-based
[7] = Half life in rat liver microsomes at 1 uM by LC-MS/MS analysis

Row | Compound | IC50 [1] | IC50 [2] | inhibition at 20 h [3] | half-life at 1 µM [4] | inhibition at 0.01 µM [5] | IC50 [6] | half-life at 1 µM [7]
1 | C[C@]12CC[C@H]3[C@@H](CC(CO)C4=CC(=O)CC[C@@]43C)C1=CC=C2c1cccnc1 (some centres undefined) | ≤ 11 nM | > 100 nM | ≥ 50% |  |  |  | 
2 | C=C1C[C@H]2C3=CC=C(c4cccnc4)[C@@]3(C)CC[C@@H]2[C@@]2(C)C=CC(=O)C=C12 |  | ≤ 10 nM |  | 1 to 50 min |  |  | 
3 | CC1CC2C3=CC=C(c4cncc(F)c4)[C@@]3(C)CC[C@@H]2[C@@]2(C)CCN(C)C(=O)C=C12 (single isomer, unassigned) |  | > 100 nM |  |  |  |  | 
4 | COc1cncc(C2=CC=C3[C@@H]4CC=C5C[C@@H](O)CC[C@]5(C)[C@H]4CC[C@]23C)c1 | ≤ 11 nM |  |  | ≥ 50 min | ≥ 80% | ≤ 15 nM | ≥ 50 min
5 | CC1C[C@@H]2[C@H](CC[C@]3(C)C(c4cncc(F)c4)=CC[C@@H]23)[C@@]2(C)C=CC(=O)C=C12 (some centres undefined) | ≤ 11 nM | 10 to 100 nM | ≥ 50% |  |  |  | 
6 | CC(=O)O[C@H]1CC[C@@]2(C)[C@@H](CC[C@@H]3[C@@H]2CC[C@]2(C)C(n4ccnn4)=CC[C@@H]32)C1 | ≤ 11 nM |  |  |  | ≥ 80% | ≤ 15 nM | 
7 | CC1C[C@@H]2[C@H](CC[C@]3(C)C(c4cccnc4)CC[C@@H]23)[C@@]2(C)CCC(=O)C=C12 (some centres undefined) |  | ≤ 10 nM |  | 1 to 50 min |  |  | 
8 | CN1CC[C@@]2(C)C(=CC1=O)CC[C@H]1C3=CC=C(c4cncc(F)c4)[C@@]3(C)CC[C@@H]12 |  | > 100 nM |  |  |  |  | 
9 | C[C@]12CCC(=O)C=C1C=C[C@@H]1[C@@H]2CC[C@]2(C)C(c3cncc(F)c3)=CC[C@@H]12 | ≤ 11 nM |  | ≥ 50% | 1 to 50 min |  | ≤ 15 nM | 
10 | C[C@]12CC[C@H]3[C@@H](CC=C4C[C@@H](O)CC[C@@]43C)C1=CC=C2c1cncc(F)c1 | ≤ 11 nM |  | ≥ 50% | 1 to 50 min |  | ≤ 15 nM | 
11 | C[C@]12CC[C@H]3[C@@H](CC(C4CC4)C4=CC(=O)CC[C@@]43C)C1=CC=C2c1cccnc1 (some centres undefined) |  | > 100 nM | 10 to 50% |  |  |  | 
12 | C[C@]12CC(O)CC1CC[C@@H]1[C@@H]2CC[C@]2(C)C(c3cncc(F)c3)=CC[C@@H]12 (some centres undefined) | ≤ 11 nM |  | 10 to 50% | ≥ 50 min |  | ≤ 15 nM | 
13 | C[C@]12CC[C@H]3[C@@H](CC[C@H]4C[C@@H](O)CC[C@@]43C)C1=CC=C2n1ccnc1 | ≤ 11 nM |  |  | ≥ 50 min | ≥ 80% | ≤ 15 nM | 10 to 60 min
14 | C[C@]12CCCC(=O)C1CC[C@@H]1[C@@H]2CC[C@]2(C)C(c3cccnc3)=CC[C@@H]12 (some centres undefined) | ≤ 11 nM |  |  |  | ≥ 80% | ≤ 15 nM | 
15 | C[C@]12CCC(=O)C=C1C=C[C@@H]1[C@@H]2CC[C@]2(C)C(c3cccnc3)=CC[C@@H]12 |  | > 100 nM | ≥ 50% | 1 to 50 min |  |  | 
16 | C[C@]12CC/C(=N\O)C=C1C1(CC1)C[C@@H]1[C@@H]2CC[C@]2(C)C(c3cccnc3)=CC[C@@H]12 |  | > 100 nM | 10 to 50% |  |  |  | 
17 | C[C@]12CC[C@H]3[C@@H](CC4(CC4)C4=CC(=O)CC[C@@]43C)C1=CC=C2c1cccnc1 |  | ≤ 10 nM |  |  |  |  | 

Row | Compound | IC50 [1] | IC50 [2] | inhibition at 20 h [3] | half-life at 1 µM [4] | inhibition at 0.01 µM [5] | IC50 [6] | half-life at 1 µM [7]
18 | C[C@]12CC[C@H]3[C@@H](CC4(CC4)C4=CC(=O)CC[C@@]43C)C1=CC=C2c1cncc(F)c1 |  | 10 to 100 nM |  |  |  |  | 
19 | C[C@]12CCC(=O)C=C1C(F)CC1[C@@H]2CC[C@]2(C)C(c3cccnc3)=CC[C@@H]12 (single isomer, unassigned) | ≤ 11 nM |  | ≥ 50% | 1 to 50 min |  | ≤ 15 nM | 
20 | C[C@]12CCC(=O)C=C1C1CC1[C@@H]1[C@@H]2CC[C@]2(C)C(c3cncc(F)c3)=CC[C@@H]12 (some centres undefined) | ≤ 11 nM |  | ≥ 50% | 1 to 50 min |  | ≤ 15 nM | 
21 | C=C1C[C@H]2C3=CC=C(c4cccnc4)[C@@]3(C)CC[C@@H]2[C@@]2(C)CCC(=O)C=C12 |  | 10 to 100 nM |  |  |  |  | 
22 | C[C@]12CC(O)CC1CC[C@@H]1[C@@H]2CC[C@]2(C)C(c3cccnc3)=CC[C@@H]12 (some centres undefined) | ≤ 11 nM |  | ≥ 50% | 1 to 50 min |  | ≤ 15 nM | 
23 | C[C@]12C=C/C(=N\O)C=C1C1(CC1)C[C@@H]1[C@@H]2CC[C@]2(C)C(c3cccnc3)=CC[C@@H]12 |  | > 100 nM | 10 to 50% |  |  |  | 
24 | CC1=C2CC[C@H]3C4=CC=C(c5cccnc5)[C@@]4(C)CC[C@@H]3[C@@]2(C)CCC1=O |  | > 100 nM | ≥ 50% |  |  |  | 
25 | C[C@]12CC[C@H](O)CC1=CC[C@@H]1[C@@H]2CC[C@]2(C)C(c3cncc(C(F)F)c3)=CC[C@@H]12 | ≤ 11 nM |  | ≥ 50% | ≥ 50 min |  | ≤ 15 nM | 
26 | CCC1C[C@@H]2[C@H](CC[C@]3(C)C(c4cccnc4)=CC[C@@H]23)[C@@]2(C)CCC(=O)C=C12 (some centres undefined) |  | 10 to 100 nM | 10 to 50% |  |  |  | 
27 | CC1C[C@@H]2[C@H](CC[C@]3(C)C(c4cccnc4)CC[C@@H]23)[C@@]2(C)CCNC(=O)C=C12 (some centres undefined) |  | ≤ 10 nM |  | 1 to 50 min |  |  | 
28 | C[C@]12CC[C@H]3[C@@H](CC4CC45C[C@@H](O)CC[C@]35C)[C@@H]1CC=C2c1cccnc1 (some centres undefined) | ≤ 11 nM |  | ≥ 50% | 1 to 50 min |  | ≤ 15 nM | 
29 | C[C@]12CC[C@H]3[C@@H](CC(F)C4(O)C[C@@H](O)CC[C@]34C)[C@@H]1CC=C2c1cncc(F)c1 (some centres undefined) | ≤ 11 nM |  | ≥ 50% | 1 to 50 min |  | ≤ 15 nM | 
30 | C[C@]12CCNC(=O)C=C1CC[C@@H]1[C@@H]2CC[C@]2(C)C(c3cncc(C(F)F)c3)=CC[C@@H]12 | ≤ 11 nM |  | ≥ 50% | 1 to 50 min |  | ≤ 15 nM | 
31 | C[C@]12CCNC(=O)C[C@@H]1CC[C@@H]1[C@@H]2CC[C@]2(C)C(n3ccnn3)=CC[C@@H]12 | ≤ 11 nM |  |  | ≥ 50 min | ≥ 80% | ≤ 15 nM | 10 to 60 min
32 | CN1CC[C@@]2(C)C(=CC1=O)C1CC1[C@H]1C3=CC=C(c4cccnc4)[C@@]3(C)CC[C@@H]12 (some centres undefined) |  | 10 to 100 nM |  |  |  |  | 
33 | C=C1C[C@H]2C3=CC=C(c4cncc(F)c4)[C@@]3(C)CC[C@@H]2[C@@]2(C)CCC(=O)C=C12 |  | 10 to 100 nM |  |  |  |  | 
34 | CC1C[C@H]2C3=CC=C(c4cccnc4)[C@@]3(C)CC[C@@H]2[C@@]2(C)CCN(C)C(=O)C=C12 (some centres undefined) |  | 10 to 100 nM |  |  |  |  | 
